Results on one compound are retold here after patent US20130196406A1, “NOVEL PROTEIN-POLYMER NANOCAPSULES” (University of Connecticut, priority 2012, published 2013).

For assay [1], the target named is T1, Hb-PAA-1k-6 nanocapsule (bovine met-hemoglobin conjugated to polyacrylic acid, synthesized at pH 6) (Bos taurus, UniProt P01966+P02070).
T1 construct: peroxidase-like activity with guaiacol/H2O2
Briefly: Peroxidase-like activity, Michaelis-Menten kinetics (guaiacol oxidation by H2O2, 470 nm), Hb-PAA-1k-6. Format: biochemical. The settings on record: 1 μM Hb, 2.5 mM guaiacol, 1 mM H2O2. The protocol: (§1) FIG. 5 provides Lineweaver-Burk plots for the peroxidase-like activity of Hb-PAA conjugates. A) Peroxidase-like activity for the 1 μM of Hb-PAA synthesized at pH 6.0. B) Peroxidase-like activity for 1 μM Hb-PAA synthesized at pH 7.0. All experiments were done in the presence of 1 μM Hb, 2.5 mM guaiacol and 1 mM H2O2.
(§2) Polyacrylic acid (PAA) (8000 Da) was purchased from sigma chemical Co (St. Louis, Mo.). The PAA stock solution was made by mixing 1.32 gm of 45% (w/w) PAA in 3 ml of 20 mM Na2HPO4 buffer, pH 7.2, and was further used for synthesis. Met-hemoglobin (Hb, bovine) was purchased from Sigma. Protein solutions were prepared in the respective buffers used for synthesis and the concentrations determined from the Soret absorbance of Hb using extinction co-efficient 303,956 M^−1 cm^−1 at 407 nm. […]
(§3) Hb activity was monitored by the addition of guaiacol (substrate) and hydrogen peroxide (oxidant), and formation of the colored product has been monitored by its absorption at 470 nm as a function of time (FIG. 4). […]
(§4) Hb activity was followed by literature method, with minor modifications. Product absorbance at 470 nm was monitored as a function time of after the addition of H2O2 (1 mM) to Hb (5 μM) and o-methoxyphenol (2.5 mM). Initial rates and Michaelis-Menten parameters were calculated from the kinetic data by following standard protocols. […]

Assay [2] addresses T2, Hb-PAA-1k-7 nanocapsule (bovine met-hemoglobin conjugated to polyacrylic acid, synthesized at pH 7) (Bos taurus, UniProt P01966+P02070).
T2 construct: peroxidase-like activity with guaiacol/H2O2
Briefly: Peroxidase-like activity, Michaelis-Menten kinetics (guaiacol oxidation by H2O2, 470 nm), Hb-PAA-1k-7. Conditions: 1 μM Hb, 2.5 mM guaiacol, 1 mM H2O2. Format: biochemical. The protocol: as §1, §2, §3, §4

One may read the Vmax as the top rate of the reaction or transport when substrate is in excess.

T1 sequence (P01966 whole entry): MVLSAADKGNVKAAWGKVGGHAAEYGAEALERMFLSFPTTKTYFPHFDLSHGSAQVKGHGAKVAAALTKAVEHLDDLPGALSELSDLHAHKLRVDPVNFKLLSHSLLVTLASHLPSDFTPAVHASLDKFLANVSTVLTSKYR
T1 sequence (P02070 whole entry): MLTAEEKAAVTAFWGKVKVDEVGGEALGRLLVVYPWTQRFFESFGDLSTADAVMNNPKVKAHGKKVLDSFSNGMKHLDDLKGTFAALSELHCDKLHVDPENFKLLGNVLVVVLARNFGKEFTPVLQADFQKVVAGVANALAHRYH
T2 sequence (P01966 whole entry): as the sequence (P01966 whole entry) above
T2 sequence (P02070 whole entry): as the sequence (P02070 whole entry) above

For the compound `COc1ccccc1O` [guaiacol, o-methoxyphenol], the Vmax in assay [1] came out at 0.0028 mM/s; in assay [2], 0.0025 mM/s.
